Values quoted from earlier work, collected in patent publication US20200000760A1, “METHOD FOR TREATING OVERACTIVE BLADDERS AND A DEVICE FOR STORAGE AND ADMINISTRATION OF TOPICAL OXYBUTYNIN COMPOSITIONS” (Allergan Sales, LLC, priority 2009, published 2020).

Key:
[1] = transdermal administration compared to oral administration
[2] = transdermal administration compared to oral administration; remark: listed apart in the source

CCN(CC)CC#CCOC(=O)C(O)(c1ccccc1)C1CCCCC1 (centres unmarked) [oxybutynin]
adverse events [1]: less adverse events
oxybutynin:desethyloxybutynin ratio in the plasma [2]: reduced
